Reference: paper PMC9015998, “Non-clinical Pharmacology of YTX-7739: a Clinical Stage Stearoyl-CoA Desaturase Inhibitor Being Developed for Parkinson’s Disease” (Molecular Neurobiology, 2022)

Target: T1, rat SCD (Rattus norvegicus, UniProt P07308)
T1 construct: rat liver microsomes (RLMs) isolated from rats fed a […] to induce SCD expression; from tissue; host or cells: rat liver microsomes (SCD-induced by diet); assay run at PureHoney Technologies
T1 sequence (P07308 1-358): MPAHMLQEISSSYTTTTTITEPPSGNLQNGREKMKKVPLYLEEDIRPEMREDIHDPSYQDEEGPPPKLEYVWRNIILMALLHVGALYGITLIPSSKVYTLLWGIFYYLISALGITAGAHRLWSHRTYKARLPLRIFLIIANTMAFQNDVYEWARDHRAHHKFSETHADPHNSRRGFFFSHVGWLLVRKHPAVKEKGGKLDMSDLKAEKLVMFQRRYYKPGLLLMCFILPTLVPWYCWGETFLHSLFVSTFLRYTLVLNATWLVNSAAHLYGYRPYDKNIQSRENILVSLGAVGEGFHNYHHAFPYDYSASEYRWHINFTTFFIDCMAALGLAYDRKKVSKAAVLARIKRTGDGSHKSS
Test: SCD enzyme assay in SCD-induced rat liver microsomes (RLM)
Type: biochemical
Details: C17:0-CoA substrate, Rapid-Fire mass spectrometry
Description: The SCD biochemical assay has been described previously (Vincent et al., 2018). In brief, SCD-induced rat liver microsomes (RLM) were isolated from […] fed a high-carbohydrate, low-fat diet for 5 days. RLM were then used in an optimized biochemical assay using C17:0-CoA as a substrate (Avanti Lipids, #870,717) and Rapid-Fire mass spectrometry to quantify conversion to C17:1-CoA. The RLM assay was performed at PureHoney Technologies (Billerica, MA).
An iterative medicinal chemistry campaign identified YTX-7739 as a SCD inhibitor that reduced conversion of saturated to unsaturated fatty acids (Fig. 1A). The potency of YTX-7739 in inhibiting SCD activity was initially assessed in rat liver microsomes (RLMs) isolated from rats fed a […] to induce SCD expression. RLMs were then used in conjunction with a synthetic C17:0-CoA SCD substrate and rapid-fire mass spectrometry to assess enzyme activity.
Fig. 1 Characterization of in vitro properties of YTX-7739. A SCD reaction converting CoA-linked saturated to monounsaturated fatty acids of 16 (palmitoleic acid) or 18 (oleic acid) carbons in length. […] B YTX-7739 and a reference SCD inhibitor (CAY10566) was tested in a biochemical assay using SCD-induced RLM and C17:0-CoA with Rapid-Fire mass spectrometry as an analytical readout. […] The calculated IC50 values are inset. […]

IC50: 1.1 nM
SMILES: Cc1nnc(-c2ccc(N3CCC(Oc4cc(F)ccc4Cl)CC3)nn2)o1 [CAY10566]
